What follows are compounds tested against PIK3CG (human) (UniProt P48736) (assay: Inhibition of PIK3CG Kinase Activity).
Chain of PIK3CG (human) (P48736 whole entry, looked up): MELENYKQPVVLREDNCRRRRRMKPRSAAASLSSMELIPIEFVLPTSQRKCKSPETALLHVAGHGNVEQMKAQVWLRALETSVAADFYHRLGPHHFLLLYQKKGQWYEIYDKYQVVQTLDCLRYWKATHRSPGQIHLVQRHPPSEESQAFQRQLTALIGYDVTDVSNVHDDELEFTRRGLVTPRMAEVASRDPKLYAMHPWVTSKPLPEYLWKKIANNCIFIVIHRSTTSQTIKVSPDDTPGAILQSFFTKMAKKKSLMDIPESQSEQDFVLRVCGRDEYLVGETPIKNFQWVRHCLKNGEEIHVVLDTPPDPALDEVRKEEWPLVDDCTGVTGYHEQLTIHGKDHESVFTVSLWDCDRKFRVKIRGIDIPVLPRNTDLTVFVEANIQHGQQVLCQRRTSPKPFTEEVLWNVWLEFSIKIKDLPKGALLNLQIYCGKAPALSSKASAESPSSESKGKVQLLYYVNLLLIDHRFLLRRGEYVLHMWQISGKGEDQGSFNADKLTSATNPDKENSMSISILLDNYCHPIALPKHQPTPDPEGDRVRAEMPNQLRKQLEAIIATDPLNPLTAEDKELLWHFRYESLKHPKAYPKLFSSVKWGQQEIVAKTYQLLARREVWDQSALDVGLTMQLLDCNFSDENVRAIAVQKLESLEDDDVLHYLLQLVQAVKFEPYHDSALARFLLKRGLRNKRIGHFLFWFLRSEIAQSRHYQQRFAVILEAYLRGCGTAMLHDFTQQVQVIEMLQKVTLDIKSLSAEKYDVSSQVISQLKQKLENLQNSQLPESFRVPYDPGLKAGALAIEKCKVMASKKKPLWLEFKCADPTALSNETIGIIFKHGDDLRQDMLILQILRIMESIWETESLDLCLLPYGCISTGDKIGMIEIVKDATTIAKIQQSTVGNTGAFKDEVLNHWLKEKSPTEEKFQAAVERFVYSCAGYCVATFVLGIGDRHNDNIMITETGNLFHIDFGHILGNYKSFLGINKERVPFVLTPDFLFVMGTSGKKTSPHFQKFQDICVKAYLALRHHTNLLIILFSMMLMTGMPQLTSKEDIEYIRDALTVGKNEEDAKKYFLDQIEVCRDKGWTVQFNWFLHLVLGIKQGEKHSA
For COc1cc(-c2cc(OC)c3c(n2)CN(c2cnn(CC(F)(F)F)c2)C3=O)cnc1OC, the Ki was under 100 nM.
Work on COc1cc(-c2cc(C)c3c(n2)CN(c2cnn(CC(F)(F)F)c2)C3=O)cc(OC)n1 yielded a Ki of under 100 nM.
COCCn1ccc(N2Cc3nc(-c4cnc(OC)c(OC)c4)ccc3C2=O)n1 was tested, and the Ki was 100 to 490 nM.
CCc1cc(N2Cc3nc(-c4cnc(OC)c(OC)c4)ccc3C2=O)n[nH]1 was tested, and the Ki was 100 to 490 nM.
COc1cc(-c2cc(C)c3c(n2)CN(c2nc(CO)cs2)C3=O)cnc1OC showed a Ki of under 100 nM.
Work on CCOc1ncc(-c2cc(C)c3c(n2)[C@@]2(CCCO2)N(c2cnn(CC(F)(F)F)c2)C3=O)cc1OC yielded a Ki of under 100 nM.
Work on COc1cc(-c2ccc3c(n2)[C@H](C)N(c2ccn(C[C@@H](C)O)n2)C3=O)cnc1OC yielded a Ki of under 100 nM.
In the case of COc1ccc(-c2cc(C)c3c(n2)CN(c2cnn(CC(F)(F)F)c2)C3=O)s1, the Ki is reported as under 100 nM.
Compound COc1cc(OC)cc(-c2cc(C)c3c(n2)[C@@H](C)N(c2cnn(CC(F)(F)F)c2)C3=O)c1 has a Ki of under 100 nM.
With CCOc1cc(-c2cc(C)c3c(n2)CN(c2ccon2)C3=O)cnc1OC the Ki was under 100 nM.
COc1cc(-c2ccc3c(n2)CN(c2ccc(=O)n(CC4COCCO4)c2)C3=O)cnc1OC (centres undefined) showed a Ki of under 100 nM.
In the case of COc1ncc(-c2cc(C)c3c(n2)C(C)(C)N(c2cnn(CC(F)(F)F)c2)C3=O)cc1NS(=O)(=O)N(C)C, the Ki is reported as under 100 nM.
Compound CCOc1cncc(-c2cc(C)c3c(n2)C(C)(C)N(c2cnn(CC#N)c2)C3=O)c1 has a Ki of under 100 nM.
In the case of COc1cc(-c2ccc3c(n2)CN(c2ccc(N4CCC(O)CC4)nc2)C3=O)cnc1OC, the Ki is reported as under 100 nM.

From the Kinase Knowledgebase extract (Sharma et al. 2016)
